Test results from patent publication US20070048247A1, “Deodorizing tablets” (Kimberly-Clark Worldwide, Inc., priority 2005, published 2007).

What was measured:
[1] = Example 3 urine odor panel ranking; parameters: species or system Human; details: for Average Urine Odor Ranking (with statistical corrections), Avg. Score: ignoring statistical anomalies
Method: (§1) The effectiveness of various quinone compounds in reducing urine odor was compared. […] Human female urine was initially collected and pooled by a nurse on staff at Kimberly-Clark Corporation. The pooled urine was added to mason jars in 50-milliliter aliquots using an automated pipette aid. […] The mason jars were placed in an incubator overnight at 37° C.
(§2) In addition to ranking the jars from least to most malodorous (on a scale from 1 to 7, with 7 being the most malodors), panelists were also asked to judge whether there were secondary (non-urine) odors present and, if so, the extent that the secondary odors were unpleasant (on a scale from 1 to 5, with 5 being extremely unpleasant).
In this assessment, panelists were given instructions to rank the least malodorous jar as “1” and the most malodorous jar as “10,” remaining free to rank the other jars between 2-9.

[2] = Example 3 secondary (non-urine) odor ranking; parameters: species or system Human; details: for Secondary Odor Ranking: individual panelist scores, scale 1 to 5, 5 extremely unpleasant
Method: as §1, §2

[3] = Example 5 urine odor panel ranking; parameters: species or system Human
Method: Assessments were conducted the following day by asking panelists to rate each jar from 1 (least urine malodor) to 8 (most urine malodor). The results are set forth below in Tables 15-18.

[4] = Example 6 urine odor panel ranking; parameters: species or system Human; details: as Example 5, 1 least, 8 most urine malodor
From the text: The quinone compounds chosen for this example were Alizarin Blue Black B, Remazol Brilliant Blue R and Acid Green 25. The results are set forth below in Tables 19 and 20.

[5] = Example 7 urine odor panel ranking (16 millimolar); parameters: species or system Human; details: 16 millimolar in urine, 1 least, 10 most urine malodor
Method: The effectiveness of various quinone compounds in reducing urine odor was compared. […] Human female urine was initially collected and pooled at Kimberly-Clark Corporation. The pooled urine was added to mason jars in 50-milliliter aliquots using an automated pipette aid. Powders of the aforementioned quinone compounds (commercially available from Sigma-Aldrich Chemical Co., Inc. of St. Louis, Missouri and Noveon Hilton Davis, Inc. of Cincinnati, Ohio) were weighed and placed into the mason jars containing 50 milliliters of urine so that the final concentration of the powder was 16 millimolar (equivalent to 1 wt. %). The mason jars were placed in an incubator overnight at 37° C. The experimental setup is set forth in more detail below in Table 21.
Jars were wrapped in foil and placed in an incubator at 37° C. overnight. The jars were divided into four groups (C-F), each sharing the same control jar of urine alone (no powder). Assessments were conducted the following day by asking panelists to rate each jar from 1 (least urine malodor) to 10 (most urine malodor).

[6] = Solubility of powder in urine
[7] = Example 1 urine odor panel ranking; parameters: species or system Human; details: 8 millimolar in urine
From the text: Human female urine was initially collected and pooled by a nurse on staff at Kimberly-Clark Corporation. […] Powders of Acid Blue 129 and Acid Green 27 (commercially available from Sigma-Aldrich Chemical Co., Inc. of St. Louis, Mo.), as well as D&C Green No. 5 (commercially available from Noveon Hilton Davis, Inc. of Cincinnati, Ohio), were then weighed and placed into the mason jars containing 50 milliliters of urine so that the final concentration of the powder was 8 millimolar (equivalent to 0.5 wt. %). […] A score of “10” was assigned to the most malodorous jar and a score of “1” was assigned to the least malodorous jar.

[8] = Example 3 first grouping, 8 millimolar in urine, scale 1 to 7, 7 most malodorous
[9] = Example 3 second grouping, 8 millimolar in urine, 1 least malodorous
[10] = Example 5 Group B, 8 mM in urine, 1 least, 8 most urine malodor
[11] = Example 5, 8 mM in 50 milliliters of urine
[12] = Example 7, 16 mM in 50 milliliters of urine
[13] = after 6 hours, 1 least, 10 most malodorous
[14] = after 24 hours, 1 least, 10 most malodorous
[15] = Example 3 top performers of both groupings, after 24 hours, 1 least, 10 most malodorous
[16] = Example 3 top performers, after 24 hours
[17] = Example 3 top performers, after 24 hours, 1 least, 10 most malodorous
[18] = Example 5 Group A, 8 mM in urine, 1 least, 8 most urine malodor

O=C1C=C(S(=O)(=O)[O-])c2ccccc2C1=O.[K+] [1,2 Naphthaquinone]
urine odor reduction (in words) ([1]; Example 3 first grouping): effectively reduced urine odor
Average Urine Odor Ranking, Avg. Score [1, 8]: 3.8
Urine Odor Ranking 2 (number of panelists) [1, 8]: 1
Urine Odor Ranking 3 (number of panelists) [1, 8]: 2
Urine Odor Ranking 4 (number of panelists) [1, 8]: 1
Urine Odor Ranking 7 (number of panelists) [1, 8]: 1
secondary odor (in words) ([2]; Example 3 first grouping): unpleasant secondary smell was found to be present

O=C1C=C(S(=O)(=O)[O-])C(=O)c2ccccc21.[K+] [1,4 Naphthaquinone, 1,4 naphthaquinone-2-sulfonic acid potassium salt]
Average Urine Odor Ranking, Avg. Score [1, 9]: 1.8
Urine Odor Ranking 1 (number of panelists) [1, 9]: 2
Urine Odor Ranking 2 (number of panelists) [1, 9]: 2
Urine Odor Ranking 3 (number of panelists) [1, 9]: 1
secondary odor (in words) ([2]; Example 3 second grouping): unpleasant secondary odor

Nc1cc(S(=O)(=O)[O-])c(O)c2c1C(=O)c1c(O)c(S(=O)(=O)[O-])cc(N)c1C2=O.[Na+].[Na+] [Acid Blue 45]
Average Urine Odor Ranking, Avg. Score [1, 9]: 3.4
Urine Odor Ranking 2 (number of panelists) [1, 9]: 1
Urine Odor Ranking 3 (number of panelists) [1, 9]: 2
Urine Odor Ranking 4 (number of panelists) [1, 9]: 1
Urine Odor Ranking 5 (number of panelists) [1, 9]: 1
odor reduction performance (in words) ([3]; Example 5 Group B): performed well
Average Rankings (Group B), Avg. Score [3, 10]: 3.75
Urine Odor Ranking 1 (number of panelists) [3, 10]: 2
Urine Odor Ranking 6 (number of panelists) [3, 10]: 1
Urine Odor Ranking 7 (number of panelists) [3, 10]: 1
Average Rankings, Avg. Score [4]: 5.5
Urine Odor Ranking 2 (number of panelists) [4]: 1
Urine Odor Ranking 6 (number of panelists) [4]: 1
Urine Odor Ranking 7 (number of panelists) [4]: 2
Average Rankings (Group E), Avg. Score ([5]; Example 7 Group E): 6.4
Urine Odor Ranking 3 (number of panelists) ([5]; Example 7 Group E): 2
Urine Odor Ranking 8 (number of panelists) ([5]; Example 7 Group E): 2
Urine Odor Ranking 10 (number of panelists) ([5]; Example 7 Group E): 1
Soluble? [6, 11]: Yes
Soluble? [6, 12]: Mostly

Cc1cc(C)c(Nc2cc(S(=O)(=O)[O-])c(N)c3c2C(=O)c2ccccc2C3=O)c(C)c1.[Na+] [Acid Blue 129]
reducing urine malodor (in words) [7]: functioned effectively in reducing urine malodor
Avg. Ranking (odor) [7, 13]: 1.6
Ranking 1 (number of panelists) [7, 13]: 4
Ranking 4 (number of panelists) [7, 13]: 1
Avg. Ranking (odor) [7, 14]: 1.3
Ranking 1 (number of panelists) [7, 14]: 5
Ranking 3 (number of panelists) [7, 14]: 1
Average Urine Odor Ranking, Avg. Score [1, 9]: 1.8
Urine Odor Ranking 1 (number of panelists) [1, 9]: 3
Urine Odor Ranking 3 (number of panelists) [1, 9]: 2
Urine Odor Ranking 1 (number of panelists) [1, 15]: 1
Urine Odor Ranking 3 (number of panelists) [1, 15]: 1
Urine Odor Ranking 4 (number of panelists) [1, 15]: 1
Urine Odor Ranking 5 (number of panelists) [1, 15]: 1
Urine Odor Ranking 6 (number of panelists) [1, 15]: 1
odor reduction (in words) [1, 16]: achieved the best odor reduction
Average Urine Odor Ranking, Avg. Score [1, 17]: 3.8
Average Urine Odor Ranking (with statistical corrections), Avg. Score [1, 16]: 3.8
odor reduction performance (in words) ([3]; Example 5 Group B): performed well
Average Rankings (Group B), Avg. Score [3, 10]: 5
Urine Odor Ranking 2 (number of panelists) [3, 10]: 1
Urine Odor Ranking 5 (number of panelists) [3, 10]: 1
Urine Odor Ranking 6 (number of panelists) [3, 10]: 1
Urine Odor Ranking 7 (number of panelists) [3, 10]: 1
Average Rankings (Group E), Avg. Score ([5]; Example 7 Group E): 6
Urine Odor Ranking 1 (number of panelists) ([5]; Example 7 Group E): 1
Urine Odor Ranking 4 (number of panelists) ([5]; Example 7 Group E): 1
Urine Odor Ranking 7 (number of panelists) ([5]; Example 7 Group E): 1
Urine Odor Ranking 9 (number of panelists) ([5]; Example 7 Group E): 2
Soluble? [6, 11]: Mostly
Soluble? [6, 12]: Somewhat

Cc1ccc(Nc2ccc(Nc3ccc(C)cc3S(=O)(=O)[O-])c3c2C(=O)c2ccccc2C3=O)c(S(=O)(=O)[O-])c1.[Na+].[Na+] [Acid Green 25]
urine odor reduction (in words) ([1]; Example 3 first grouping): functioned effectively to reduce odor
Average Urine Odor Ranking, Avg. Score [1, 8]: 2.2
Urine Odor Ranking 1 (number of panelists) [1, 8]: 3
Urine Odor Ranking 2 (number of panelists) [1, 8]: 1
Urine Odor Ranking 6 (number of panelists) [1, 8]: 1
Average Urine Odor Ranking, Avg. Score [1, 9]: 4.4
Urine Odor Ranking 1 (number of panelists) [1, 15]: 3
Urine Odor Ranking 2 (number of panelists) [1, 15]: 1
Urine Odor Ranking 10 (number of panelists) [1, 15]: 1
odor reduction (in words) [1, 16]: achieved the best odor reduction
Average Urine Odor Ranking, Avg. Score [1, 17]: 3.0
Average Urine Odor Ranking (with statistical corrections), Avg. Score [1, 16]: 1.3
secondary odor (in words) ([2]; Example 3 first grouping): not found to be unpleasant by most panelists
Average Rankings (Group A), Avg. Score [3, 18]: 3
Urine Odor Ranking 2 (number of panelists) [3, 18]: 1
Urine Odor Ranking 3 (number of panelists) [3, 18]: 2
Urine Odor Ranking 4 (number of panelists) [3, 18]: 1
Average Rankings, Avg. Score [4]: 2.25
Urine Odor Ranking 1 (number of panelists) [4]: 2
Urine Odor Ranking 2 (number of panelists) [4]: 1
Urine Odor Ranking 5 (number of panelists) [4]: 1
Average Rankings (Group F), Avg. Score ([5]; Example 7 Group F): 3.2
Urine Odor Ranking 1 (number of panelists) ([5]; Example 7 Group F): 2
Urine Odor Ranking 2 (number of panelists) ([5]; Example 7 Group F): 1
Urine Odor Ranking 6 (number of panelists) ([5]; Example 7 Group F): 2
Soluble? [6, 11]: Yes
Soluble? [6, 12]: Mostly

Cc1ccc(Nc2ccc(Nc3ccc(C)cc3S(=O)(=O)[O-])c3c2C(=O)c2c(O)ccc(O)c2C3=O)c(S(=O)(=O)[O-])c1.[Na+].[Na+] [Acid Green 41]
urine odor reduction (in words) ([1]; Example 3 first grouping): functioned effectively to reduce odor
Average Urine Odor Ranking, Avg. Score [1, 8]: 2.4
Urine Odor Ranking 1 (number of panelists) [1, 8]: 1
Urine Odor Ranking 2 (number of panelists) [1, 8]: 2
Urine Odor Ranking 3 (number of panelists) [1, 8]: 1
Urine Odor Ranking 4 (number of panelists) [1, 8]: 1
Urine Odor Ranking 1 (number of panelists) [1, 15]: 1
Urine Odor Ranking 2 (number of panelists) [1, 15]: 2
Urine Odor Ranking 3 (number of panelists) [1, 15]: 1
Urine Odor Ranking 7 (number of panelists) [1, 15]: 1
odor reduction (in words) [1, 16]: achieved the best odor reduction
Average Urine Odor Ranking, Avg. Score [1, 17]: 3.0
Average Urine Odor Ranking (with statistical corrections), Avg. Score [1, 16]: 2.0
Secondary Odor Ranking ([2]; Example 3 first grouping): 1
Average Rankings (Group A), Avg. Score [3, 18]: 4.25
Urine Odor Ranking 2 (number of panelists) [3, 18]: 1
Urine Odor Ranking 3 (number of panelists) [3, 18]: 1
Urine Odor Ranking 5 (number of panelists) [3, 18]: 1
Urine Odor Ranking 7 (number of panelists) [3, 18]: 1
Average Rankings, Avg. Score [4]: 5.25
Urine Odor Ranking 3 (number of panelists) [4]: 1
Urine Odor Ranking 4 (number of panelists) [4]: 1
Urine Odor Ranking 6 (number of panelists) [4]: 1
Urine Odor Ranking 8 (number of panelists) [4]: 1
Average Rankings (Group D), Avg. Score ([5]; Example 7 Group D): 1.4
Urine Odor Ranking 1 (number of panelists) ([5]; Example 7 Group D): 4
Urine Odor Ranking 3 (number of panelists) ([5]; Example 7 Group D): 1
Soluble? [6, 11]: Yes
Soluble? [6, 12]: Yes

CCN(Cc1cccc(S(=O)(=O)[O-])c1)c1ccc(C(=C2C=CC(=[N+](CC)Cc3cccc(S(=O)(=O)[O-])c3)C=C2)c2ccccc2S(=O)(=O)[O-])cc1.[Na+].[Na+] [FD&C Blue No. 1, FD&C Blue No.1, reference compound]
Average Urine Odor Ranking, Avg. Score [1, 8]: 4.8
Urine Odor Ranking 4 (number of panelists) [1, 8]: 1
Urine Odor Ranking 5 (number of panelists) [1, 8]: 4
Secondary Odor Ranking ([2]; Example 3 first grouping): 3
